Experimental findings from patent publication US20210145000A1, “WEED CONTROL FROM APPLICATIONS OF PYRIDINE CARBOXYLIC ACID HERBICIDES AND ACETYL CoA CARBOXYLASE (ACCase) INHIBITORS” (Dow AgroSciences LLC, priority 2018, published 2021) are described below.

The structures appear in SMILES notation.

What all share (test): Postemergence herbicidal activity, greenhouse, visual injury
Assay type in all cases: in vivo

Assay [1] concerns barnyardgrass (Echinochloa crus-galli, ECHCG). To be noted: post-emergence, read-out: Effect (% visual injury) Obs. The procedure:
(§1) The plants were grown for 7-36 days (d) in a greenhouse with an approximate 14-hour (h) photoperiod which was maintained at about 23° C. during the day and 22° C. during the night. Nutrients and water were added on a regular basis and supplemental lighting was provided with overhead metal halide 1000-Watt lamps as necessary. The plants were employed for testing when they reached the second or third true leaf stage.
(§2) Spray solutions of the experimental compound mixtures were prepared by adding the stock solutions to the appropriate amount of dilution solution to form a 12 mL spray solution in two-way combinations. […] Control plants were sprayed in the same manner with the solvent blank. Application rates for component (a) are in g ae/ha, and application rates for component (b) are in g ai/ha.
(§3) The treated plants and control plants were placed in a greenhouse as described above and watered by sub-irrigation to prevent wash-off of the test compounds. After 20-22 d, the condition of the test plants as compared with that of the control plants was determined visually and scored on a scale of 0 to 100 percent where 0 corresponds to no injury and 100 corresponds to complete kill. […] The Colby method was used to determine the herbicidal effects expected from the mixtures.

Assay [2] relates to giant foxtail (Setaria faberi, SETFA). The note with it: post-emergence, read-out: Effect (% visual injury) Obs. The procedure:
as §1, §2, §3

For assay [3], the system named is grain sorghum (Sorghum vulgare, SORVU). The note with it: post-emergence, read-out: Effect (% visual injury) Obs. The procedure:
as §1, §2, §3

The test system of assay [4] is large crabgrass (Digitaria sanguinalis, DIGSA). The note with it: post-emergence, read-out: Effect (% visual injury) Obs. The procedure:
as §1, §2, §3

In another assay the test system is maize (Zea mays, ZEAMX). The note with it: post-emergence, read-out: Effect (% visual injury) Obs. How it is done: as §1, §2, §3
Assay [5] has as its system pigweed (Amaranthus retroflexus, AMARE). The note with it: post-emergence, read-out: Effect (% visual injury) Obs. The procedure: as §1, §2, §3
The subject of assay [6] is rice (Oryza sativa, ORYSA). To be noted: post-emergence, read-out: Effect (% visual injury) Obs. The procedure:
as §1, §2, §3

Assay [7] concerns sunflower (Helianthus annuus, HELAN). To be noted: post-emergence, read-out: Effect (% visual injury) Obs. How it is done:
as §1, §2, §3

Assay [8] deals with velvetleaf (Abutilon theophrasti, ABUTH). The note with it: post-emergence, read-out: Effect (% visual injury) Obs. The procedure:
as §1, §2, §3

The subject of assay [9] is wild buckwheat (Polygonum convolvulus, POLCO). The note with it: Fallopia convolvulus, post-emergence, read-out: Effect (% visual injury) Obs. How it is done:
as §1, §2, §3

In assay [10] the test system is wild oat (Avena fatua, AVEFA). To be noted: post-emergence, read-out: Effect (% visual injury) Obs. How it is done:
as §1, §2, §3

In assay [11] the test system is wild pansy (Viola tricolor, VIOTR). To be noted: post-emergence, read-out: Effect (% visual injury) Obs. How it is done: as §1, §2, §3
The test system of assay [12] is winter wheat (Triticum aestivum, TRZAW). The note with it: post-emergence, read-out: Effect (% visual injury) Obs. The procedure:
as §1, §2, §3

Assay [13] has as its system winter rape (Brassica napus, BRSNW). To be noted: post-emergence, read-out: Effect (% visual injury) Obs. How it is done:
(§4) Seeds of the desired test plant species were planted in Sun Gro MetroMix® 306 planting mixture, which typically has a pH of 6.0 to 6.8 and an organic matter content of about 30 percent, in plastic pots with a surface area of 103.2 square centimeters (cm^2). When required to ensure good germination and healthy plants, a fungicide treatment and/or other chemical or physical treatment was applied. The plants were grown for 7-36 days (d) in a greenhouse with an approximate 14-hour (h) photoperiod which was maintained at about 23° C. during the day and 22° C. during the night. Nutrients and water were added on a regular basis and supplemental lighting was provided with overhead metal halide 1000-Watt lamps as necessary. The plants were employed for testing when they reached the second or third true leaf stage.
(§5) An emulsifiable concentrate (EC) formulation containing Compound 1 at 100 gai/L was prepared by combining Compound 1 with 1-butyl-2-pyrrolidinone (Tamisolve NxG; 360.5 g/L), benzyl acetate (544.6 g/L) and Agnique MBL 520L surfactant (52.9 g/L). […] The concentrated stock solution was diluted with an aqueous mixture of 1.5% v/v of Agri-dex crop oil concentrate to provide the appropriate application rates. Compound requirements are based upon a 12 milliliter (mL) application volume at a rate of 187 liters per hectare (L/ha). Spray solutions of the experimental compound mixtures were prepared by adding the stock solutions to the appropriate amount of dilution solution to form a 12 mL spray solution in two-way combinations. Formulated compounds were applied to the plant material with an overhead Mandel track sprayer equipped with 8002E nozzles calibrated to deliver 187 L/ha over an application area of 0.503 square meters (m^2) at a spray height of 18 inches (43 centimeters (cm)) above average plant canopy. Control plants were sprayed in the same manner with the solvent blank. Application rates for component (a) are in g ae/ha, and application rates for component (b) are in g ai/ha.
as §3

Assay [14] deals with common lambsquarters (Chenopodium album L., CHEAL). The note with it: post-emergence, read-out: Effect (% visual injury) Obs. How it is done: as §1, §2, §3
For assay [15], the system named is chickweed (Stellaria media, STEME). The note with it: post-emergence, read-out: Effect (% visual injury) Obs. How it is done: as §4, §5, §3
The test system of assay [16] is blackgrass (Alopecurus myosuroides, ALOMY). To be noted: post-emergence, read-out: Effect (% visual injury) Obs. The procedure:
as §1, §2, §3

In assay [17] the test system is poinsettia (Euphorbia heterophylla, EPHHL). The procedure:
as §4, §5, §3

Assay [18] has as its system soybean (Glycine max, GLXMA). The note with it: post-emergence, read-out: Effect (% visual injury) Obs. The procedure: as §1, §2, §3

On to `CCCCOC(=O)[C@@H](C)Oc1ccc(Oc2ccc(C#N)cc2F)cc1` [Cyhalofop-butyl], for which the pest or weed control at 180 g/ha in [1] was 100%; in assay [2], 90%; in assay [4], 85%; in assay [5], 0%; in [8], 0%; in assay [9], 0%. The figures for the pest or weed control at 180 g/ha in [10] and in assay [11] were 90% and 0%, respectively. Further, the plant injury at 180 g/ha in assay [3] amounted to 95%; in the assay with maize (Zea mays, ZEAMX) it was 95%; in assay [6] it was 0%; in assay [7], 0%; in assay [12], 0%; in assay [13] it was 0%.

In the case of `COC(=O)C(C)Oc1ccc(Oc2ccc(Cl)cc2Cl)cc1` (stereo not shown) [Diclofop-methyl], the pest or weed control at 280 g/ha was determined as 100% in [1]; 0% in assay [14]; 60% in assay [2]; 0% in assay [5]; 0% in assay [8]; 0% in assay [9]. The pest or weed control at 280 g/ha in assay [11] and in [15] was 0% in each case. The plant injury at 280 g/ha in [6] came out at 40%; in [7], 0%; in assay [12], 0%; in assay [13], 0%.

Take `CCOC(=O)[C@@H](C)Oc1ccc(Oc2nc3ccc(Cl)cc3o2)cc1` [Fenoxaprop-P-ethyl]: the pest or weed control at 46 g/ha is 100% in assay [1] (Fenoxaprop-P-ethyl 46 g ai/ha); 0% in assay [16] (Fenoxaprop-P-ethyl 46 g ai/ha); 0% in assay [14] (Fenoxaprop-P-ethyl 46 g ai/ha); 100% in [2] (Fenoxaprop-P-ethyl 46 g ai/ha); 100% in [4] (Fenoxaprop-P-ethyl 46 g ai/ha); 0% in assay [8] (Fenoxaprop-P-ethyl 46 g ai/ha). For the same compound, the pest or weed control at 46 g/ha came to 0% in assay [9] (Fenoxaprop-P-ethyl 46 g ai/ha), 95% in assay [10] (Fenoxaprop-P-ethyl 46 g ai/ha) and 0% in [11] (Fenoxaprop-P-ethyl 46 g ai/ha). Moreover, the plant injury at 46 g/ha in the assay with maize (Zea mays, ZEAMX) (Fenoxaprop-P-ethyl 46 g ai/ha) came to 100%; in [7] (Fenoxaprop-P-ethyl 46 g ai/ha) it was 0%; in assay [12] (Fenoxaprop-P-ethyl 46 g ai/ha) it was 0%; in [13] (Fenoxaprop-P-ethyl 46 g ai/ha), 0%.

Take `CCCCOC(=O)[C@@H](C)Oc1ccc(Oc2ccc(C(F)(F)F)cn2)cc1` [Fluazifop-butyl]: the pest or weed control at 105 g/ha in [1] was found to be 100%; in [16], 20%; in assay [2], 97%; in assay [4], 95%; in assay [5], 0%; in [8], 0%. The pest or weed control at 105 g/ha in assay [9] stood at 0%; in [10] it was 95%; in [11], 0%; in assay [15], 0%. Moreover, the plant injury at 105 g/ha in the assay on maize (Zea mays, ZEAMX) is 100%; in assay [6], 85%; in assay [12] it was 90%; in assay [13] it was 0%. Further, the “Effect (% visual injury) Obs” value in assay [17] (Fluazifop-butyl 105 g ai/ha) was found to be 0%.

Turning to `COC(=O)[C@@H](C)Oc1ccc(Oc2ncc(C(F)(F)F)cc2Cl)cc1` [Haloxyfop-P-methyl], the pest or weed control at 70 g/ha was found to be 100% in [1]; 97% in [16]; 0% in assay [14]; 100% in assay [4]; 0% in [5]; 0% in assay [8]. For the same compound, the pest or weed control at 70 g/ha in assay [9], in assay [11] and in [15] was 0% throughout. The plant injury at 70 g/ha in assay [3] was 100%; with maize (Zea mays, ZEAMX), 100%; in assay [6], 100%; in assay [18], 0%; in [7], 0%; in assay [12], 100%. In addition, the plant injury at 70 g/ha in assay [13] came out at 0%. Also, in [17] (Haloxyfop-P-methyl 70 g ai/ha), the “Effect (% visual injury) Obs” value came out at 0%.

For `CCc1cc(C)cc(CC)c1-c1c(OC(=O)C(C)(C)C)n2n(c1=O)CCOCC2` [Pinoxaden], the pest or weed control in assay [1] (Pinoxaden 30 g ai/ha) came out at 100%; in assay [14] (Pinoxaden 30 g ai/ha) it was 0%; in assay [2] (Pinoxaden 30 g ai/ha), 0%; in assay [4] (Pinoxaden 30 g ai/ha), 10%; in [5] (Pinoxaden 30 g ai/ha) it was 0%; in [8] (Pinoxaden 30 g ai/ha), 0%. Also, the pest or weed control is 0% in assay [9] (Pinoxaden 30 g ai/ha), 95% in assay [10] (Pinoxaden 30 g ai/ha) and 0% in [11] (Pinoxaden 30 g ai/ha). The plant injury in assay [3] (Pinoxaden 30 g ai/ha) worked out at 100%; with maize (Zea mays, ZEAMX) (Pinoxaden 30 g ai/ha), 10%; in assay [6] (Pinoxaden 30 g ai/ha), 99%; in assay [18] (Pinoxaden 30 g ai/ha) it was 0%; in assay [7] (Pinoxaden 30 g ai/ha), 0%; in assay [12] (Pinoxaden 30 g ai/ha), 0%. For the same compound, the pest or weed control at 30 g/ha in [15] (Pinoxaden 30 g ai/ha) was 0%.

On to `CCOC(=O)[C@@H](C)Oc1ccc(Oc2cnc3cc(Cl)ccc3n2)cc1` [Quizalofop-P-ethyl], for which the pest or weed control at 75 g/ha turned out to be 100% in assay [1]; 100% in assay [16]; 0% in assay [14]; 100% in assay [2]; 100% in [4]; 0% in assay [5]. Moreover, the pest or weed control at 75 g/ha came out at 0% in assay [8], 0% in assay [9], 98% in assay [10] and 0% in assay [11]. Besides, the plant injury at 75 g/ha in assay [3] was 100%; in the assay on maize (Zea mays, ZEAMX), 100%; in assay [6], 100%; in assay [18], 0%; in assay [7] it was 0%; in [12], 99%.
